The target in one assay is T1, BCL-XL (Homo sapiens, UniProt Q07817, DEL27-81).
T1 construct: human BCL-XL (residues 1–210, with 27–81 and 210–233 removed); vector-borne tag of pET-22b (Ni-NTA purification implies a His tag); made in house; host or cells: E. coli BL21 (DE3)
Briefly: SPR binding assay, BCL-XL. As to conditions: affinity fitting, mean ± SD of three independent experiments, 25 °C. From the text: The DNA fragments encoding human BCL-XL ([…], with […] removed), BCL-w (residues 6–152), MCL-1 (residues 152–308) and BFL-1 (residues 1–151) as previously reported[18] were cloned into a pET-22b vector (Invitrogen), respectively. A chimeric human BCL-2 (including residues 1–50 and 92–207) was constructed, by removing the internal long loop (residues 51–91) and replacing its residues 35–50 with residues 33–48 of BCL-XL to solubilize the protein[14], and then it was cloned into a pET28a-Sumo vector (Invitrogen). All BCL-2 mutants (G101V, F104L, Y103D, D111A) were generated by mutagenic PCR, according to the QuikChange (Stratagene) protocol.
SPR assays were performed using a Biacore T200 instrument in running buffer consisting 10 mM PBS, 50 μM EDTA and 0.05% Tween-20 at 25 °C. Biotinylated proteins were immobilized on a CAP sensor chip (Cytiva, 28920234). […] The binding affinities were quantified by the Biacore evaluation software using 1:1 binding model. The reproducibility of the assays was confirmed by performing replicate determinations.
On the technique in general: Surface plasmon resonance follows binding to a sensor surface in real time, without labels.

Assay [1] relates to Jurkat cells. Briefly: Apoptosis assay, Annexin V-FITC/PI staining and flow cytometry. The assay is classed as cell-based. As to the method: Jurkat cells were seeded to 6-well plates at a density of 4 ×10^5 cells per well. Cells were incubated in the presence of DMSO, venetoclax at 2.5 μM, cp1-TAT at 30 μM, cp2-TAT at 30 μM, or cp3-TAT at 20 μM in serum-free RPMI medium for 4 h. After being incubated totally for 24 h, cells were washed once with PBS and stained with 100 μL binding buffer containing 5 μL Annexin V-FITC and 10 μL PI for 15 min, followed by addition of 400 μL binding buffer to detect cell apoptosis with FCM (BD FACSAria Fusion). Statistical analysis was performed using software FlowJo V10 and GraphPad Prism 7.0.
On the technique in general: A flow cytometer gives signals particle by particle.

Assay [2] deals with Jurkat cells. Description: Cytochrome C release assay (mitochondrial cytochrome C, Western blot). In kind it is cell-based. As to conditions: 2.5 μM, 12 h. As to the method:
Jurkat cells at 2 ×10^6 cells/mL were incubated in the presence of DMSO or 50 μM BIP-V5 inhibitor[54] (Yuanye Biotechnology Co., Ltd, 579492-81-2) for 24 h. Two groups of above treated cells were each divided into four groups and incubated in the presence of DMSO, venetoclax at 2.5 μM, cp4-TAT at 20 μM, or cp5-TAT at 15 μM in serum-free RPMI medium for 4 h. Then the medium was supplemented with FBS to 10% and incubated for another 8 h. After being treated by venetoclax or CPs for totally 12 h, cell were processed with the Mitochondrial Separation Kit (Beyotime, C3601) to extract mitochondria. Cytochrome C in mitochondria and BAX proteins in the whole cells were detected by Western blot.
Cell lysates containing equal amounts of total proteins were denatured, subjected to electrophoresis on SDS-PAGE gels, and transferred onto nitrocellulose membranes. The blots were blocked with 5% skim milk and then incubated at 4 °C overnight with the corresponding primary antibodies against BCL-2 (dilution 1:1000, Abcam, ab194583), BCL-XL (dilution 1:1000, Abcam, ab32370), anti-Flag (dilution 1:1000, Sigma, F1804), cytochrome C (dilution 1:1000, Beyotime, AC909), BAX (dilution 1:1000, Beyotime, AB026), α-Tubulin (dilution 1:3000, Abcam, ab7291), or β-Actin (dilution 1:3000, Abcam, ab8227). […]
On the technique in general: A western blot detects proteins with antibodies after separation by electrophoresis.

In a further assay the test system is BCL-2 G101V. Details: method as in PMID 31160589. As to conditions: SPR assays; cited from earlier work.

The structures appear in SMILES notation. “And” between values parts separate entries of the source, which are not always exact repeats. Equal values may be shown once.

T1 sequence (Q07817 with tags, fused parts or gaps DEL27-81): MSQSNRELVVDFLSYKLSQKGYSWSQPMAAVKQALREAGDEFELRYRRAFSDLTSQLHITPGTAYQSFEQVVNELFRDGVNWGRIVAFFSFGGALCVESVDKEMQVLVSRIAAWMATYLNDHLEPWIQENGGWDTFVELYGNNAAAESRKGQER

Take `O=C(c1cc(-c2cc3c(cc2C(=O)N2Cc4ccccc4C[C@H]2CN2CCOCC2)OCO3)n2c1CCCC2)N(c1ccccc1)c1ccc(O)cc1` [S55746]: the Kd on BCL-XL came out at 0.175 ± 0.042 µM.

As for `CC1(C)CCC(CN2CCN(c3ccc(C(=O)NS(=O)(=O)c4ccc(NCC5CCOCC5)c([N+](=O)[O-])c4)c(Oc4cnc5[nH]ccc5c4)c3)CC2)=C(c2ccc(Cl)cc2)C1` [venetoclax], the “cell apoptosis(%)” value in the assay on Jurkat cells [1] (Figure 6b, replicate values) is 94.5% and 85.6%. Moreover, the “Proportion of apoptotic cells” value in the assay on Jurkat cells [1] (Jurkat, 24 h, 2.5 μM) is 94.5%. Also, the “Cytochrome C level in mitochondria” value in the assay with Jurkat cells [2] is on record as “decreased clearly”. Besides, in the assay on BCL-2 G101V, the “Reduction of binding affinity of BCL-2 to venetoclax by G101V” value is listed as ~ 180 fold.

A word on the Kd: it is the concentration at which binding is half-saturated. High values mean a looser complex, low ones a tighter complex.
